According to patent US7888116B2, “Uses of notch receptors, notch ligands, and notch modulators in methods related to metabolic diseases” (The United States of America as represented by the …, priority 2005, dated 2011):
Entries after “also recorded” stand apart in the source; their conditions may differ.

How the values were obtained:
Notch-1 (NICD) [1] = assay: NICD nuclear translocation in RIN cells (indirect immunofluorescence, immunoblot of nuclear extracts); type: cell-based, rat; conditions: for effect on Ex-4-mediated translocation of NICD: H89 10 μM, L-685,458 pretreatment for 2 h
Description: (§1) Islet isolation, cell culture and treatments. Adult rat (Sprague-Dawley) and mouse (C57/BL6) islets were isolated by collagenase P digestion and cultured overnight in M199 medium (5 mM glucose). RIN 1046-38 β-cells were cultured as outlined previously (Wang, et al., Endocrinology, 142:1820-1827 (2001)). Isolated human islets came from David Harlan, Transplant Section, NIDDK. Ex-4, GLP-1, CCK (all used at concentrations previously shown to cause maximum insulin release), Ex and the γ-secretase inhibitor, L-685,458, were obtained from Bachem. H89 was from Calbiochem, insulin was from Sigma. The Jagged peptides, R-JAG […] (SEQ ID NO:1), JAG-1 […] (SEQ ID NO:2), and scrambled control peptide without agonist activity, sc-Jagged […] (Nickoloff, et al., Cell Death Differ, 9842-855 (2002)) (SEQ ID NO:3), were synthesised by New England Peptide Inc.
(§2) Cell extracts, immunoblotting and RT-PCR. Cytosolic and nuclear cell extracts were prepared using the NE-PER Nuclear and Cytoplasmic Extraction Reagents (Pierce) in accordance with the manufacturer's instructions. Whole cell extracts were isolated as described (Wang, et al., Endocrinology, 142:1820-1827 (2001)). Cell extracts were separated by Tris-glycine (10%, 4-12%) PAGE (Invitrogen) and immunoblofted as described (Wang, et al., Endocrinology, 142:1820-1827 (2001)) using the following antibodies: rabbit anti-Notch1 (1:5,000), rabbit anti-IRS2 (1:1,000), both from Upstate Biotechnology, rabbit N-terminal anti-PDX-1 (1:10,000, from Joel Habener (Stanojevic, et al., Endocrinology, 145:2918-2928 (2004)). Total RNA was extracted using Triazol (Invitrogen) according to the manufacturer's instructions. RT-PCR was performed using the Qiagen OneStep RT-PCR kit. See Table 2 for primer sequences and annealing temperatures. Each target gene was amplified over 35 cycles.
(§3) RIN cells were permeabilized in Triton-X (0.1%) on ice and blocked for 1 h at room temperature in 3% BSA and 0.1% Tween in PBS. They were incubated overnight at 4° C. with the primary antibody, washed in PBS and incubated with fluorescent labelled secondary antibody for 1 h, washed and mounted with fluorescence mounting medium (Vector Laboratories). Mouse sections (FIG. 9) for indirect immunofluorescence were antigen-retrieved, processed in the same manner as the cells and stained with anti-Notch-1. Indirect immunofluorescent staining was imaged using a Zeiss LSM-410 inverted microscope. AlexaFluor antibodies (Molecular Probes; Eugene, Oreg.) were excited with the 488-nm line of a krypton-argon laser and recorded at the presence of emission filter BP515-565 nm. The microscope objective was a Zeiss 63×NA 1.4 oil immersion and the confocal pinhole was set to obtain spatial resolution of […] in the horizontal plane and […] in the axial dimension.

γ-secretase = target: T1, γ-secretase (Rattus norvegicus, UniProt P97887); assay: γ-secretase activity assay (Notch ΔE-GVP / UAS-luciferase reporter) in RIN cells; type: cell-based; conditions: for effect on Ex-4-activated γ-secretase cleavage / UAS promoter activation: RIN cells transfected with Notch ΔE-GVP
T1 construct: endogenous in cells; host or cells: RIN 1046-38 rat β-cells
Description: Transfections and Luciferase assays. The rat insulin-I promoter linked to the luciferase reporter plasmid pGL3 (Ins-1-luc) was obtained from Michael Freemark (Fleenor and Freemark, Endocrinology, 142:2805-2810 (2001)), and both the Notch ΔE-GVP plasmid and UAS responsive reporter gene construct MH100 were from Johan Lundkvist (Karlstrom, et al., J Biol Chem, 277:6763-6766 (2002)). For the insulin reporter gene assay, RIN cells in 35 mm dishes were co-transfected with 0.8 μg ins-1-luc plasmid and 0.7 μg of pCMV-β-galactosidase using 8 μl of Polyfect (Qiagen). For the γ-secretase activity assay RIN cells in 12 well plates were co-transfected with 30 ng of pCMV-β-galactosidase, 200 ng of MH100, 100 ng Notch ΔE-GVP plasmids for each well using Lipofectamine PLUS (Invitrogen). The transfected cells were allowed to recover for 24-48 h in medium with serum and subsequently incubated in insulin secretion assay buffer (for the insulin promoter assay) or in medium without serum (for the γ-secretase assay) with or without Ex-4 and inhibitors. Ins-1-luc and Notch ΔE-GVP activities were measured using assay system kits from Promega according to the manufacturer's instructions using a Berthord LB 9501 luminometer. The luciferase values were normalized to β-galactosidase measured using the luminometer for lysates from 35 mm dishes and an ELISA plate reader (Spectra Max Plus, Molecular Devices) for lysates from 12 well plates.

C57/BL6 mouse islets = assay: Immunoblotting for IRS2 and PDX-1 in C57/BL6 mouse islets treated for 8 h; type: cell-based; conditions: for PDX-1 levels: islets
Description: as §1, §2

RIN 1046-38 β-cells = assay: Insulin secretion and intracellular insulin in RIN cells (ELISA); type: cell-based, rat; conditions: for insulin release, R-JAG and Ex-4 together vs either alone: 6 h time point; for total intracellular insulin: 6 h treatment; for insulin release into the medium: time course
Description: (§4) Insulin assays and cell turnover studies. Insulin secretion assays were performed and intracellular insulin was extracted as described (Wang, Y. et al., J. Clin. Invest., 99:2883-2889 (1997)), followed by insulin quantification using an ELISA kit (Crystal Chem). Cells were treated for 8 h as indicated and pulsed with [^3H]thymidine (PerkinElmer Life Sciences) at 37° C., followed by lysis of the cells and [^3H] counting (He, et al., J Biol Chem, 278:27096-27104 (2003)).

RIN cells [2] = assay: [3H]thymidine uptake (β-cell proliferation) in RIN cells; type: cell-based, rat; conditions: 8 h treatment
Description: as §4

Notch-1 (NICD) [3] = assay: NICD in islet nuclei of wild-type and GLP-1R null mice after intraperitoneal treatment; type: in vivo, mouse; conditions: fasted, 1 nmol/kg IP
Description: as §3, with “Animal Protocols. Wild-type and GLP-1R −/− mice (Scrocchi, L. A. et al. Nat. Med., 2:1254-1258 (1996)) were injected intraperitoneally with Ex-4 (1 nmol/kg) or glucose (1 g/kg) after overnight fast and their pancreata excised. Animal protocols were approved by the NIA Animal Care and Use Committee. RIN” for “RIN”

RIN cells [4] = assay: RT-PCR and immunoblotting of whole RIN cell extracts (insulin, IRS2, PDX-1, Notch-1); type: cell-based, rat
Description: as §2, with “Each target gene was amplified over 35 cycles.” left out

Rat islets = assay: Rat islets: real time PCR and intracellular insulin after R-JAG; type: cell-based
Description: Rat islets (80) were pre-incubated for 2 periods of 30 min in the glucose-free buffer in a 37° C. humidified air incubator. […] At the end of the experiment, islets were centrifuged and any residual medium removed and stored −20° C. for quantification of insulin released. The pellet was suspended in ice cold acid-ethanol (500 μl) and homogenized. After centrifugation of the homogenate (1,400 g, 4° C.) the supernatant was collected for measurement of intracellular insulin using the Rat insulin ELISA kit from Crystal Chem. Inc. (Chicago, Ill.). The pellet was lysed with 0.2 ml formic acid and saved at […] for analysis of protein by the Bradford method (Bio-Rad Laboratories, Inc. Richmond, Calif.). A control condition with insulin secretion assay buffer containing just 6 mM glucose was used. Insulin values were normalized to protein content.
Reverse transcription. DNA-free RNA was isolated using the Triazol extraction method (Invitrogen; Carlsbad, Calif.) following the manufacturer's protocol. DNAse I treatment and inactivation, and reverse transcription reaction primed with random sequence oligonucleotides were performed using Ambion instruction manual and Cells-to-cDNA II kits components in the I-Cycler thermocycler from BioRad. As a control, a mock reverse transcription containing all RT reagents except the Reverse Transcriptase, which was substituted with water, was used.
Real Time PCR. Real time PCR reactions were performed using the ABI PRISM™ 7700 Sequence Detection Systems (Applied Biosystems; Valencia, Calif.) and the SYBER Green kit from Applied Biosystems. All PCR reactions were performed in triplicate using the SYBER Green master mix (12.5 μl) from Applied Biosystems, 1 μg of cDNA, 2.5 μl of each 0.5 μM primer and water for a 25 μl reaction. Cycling parameters for amplifications of target genes were (95° C. for 10 min, at 94° C. for 15 seconds, 60° C. for 1 min)×40 cycles. The target gene copy number in unknown samples was quantified by measuring the threshold cycle CT and by using the standard curve to determine the starting copy number. The β-actin gene was an endogenous control. Final results were expressed as n-fold differences relative to untreated controls.

With `O=S(=O)(NCCNC/C=C/c1ccc(Br)cc1)c1cccc2cnccc12` [H89] the “effect on glucose-mediated NICD translocation” value (Notch-1 (NICD) [1]; RIN cells) was “prevented”, the “effect on Ex-4-mediated translocation of NICD” value (Notch-1 (NICD) [1]; RIN cells) was “diminished” and the “effect on Ex-4-activated γ-secretase cleavage / UAS promoter activation” value (γ-secretase) was “greatly diminished; also recorded: abrogated; also recorded: blocked”.
In the case of `CC(C)C[C@H](NC(=O)[C@H](Cc1ccccc1)C[C@@H](O)[C@H](Cc1ccccc1)NC(=O)OC(C)(C)C)C(=O)N[C@@H](Cc1ccccc1)C(N)=O` [L-685,458], the “effect on Ex-4-mediated translocation of NICD” value (Notch-1 (NICD) [1]; RIN cells) is reported as “inhibited”, the “effect on Ex-4-mediated increase in IRS2 levels” value (C57/BL6 mouse islets; C57/BL6 mouse islets) is reported as “diminished; also recorded: decreased” and the “effect on R-JAG-mediated increases in IRS2 levels” value (C57/BL6 mouse islets; C57/BL6 mouse islets) is reported as “prevented; also recorded: completely abrogated”. The “effect on Ex-4-activated γ-secretase cleavage / UAS promoter activation” value (γ-secretase) was “greatly diminished; also recorded: abrogated; also recorded: blocked”.
For Exendin 9-39, the “NICD nuclear localization with GLP-1 (50 nM) in conjunction with the GLP-1R antagonist” value (Notch-1 (NICD) [1]; RIN cells, antagonist 500 nM) was “equivalent to glucose treatment alone”.
With Exendin-4 [Ex-4] the “insulin release, R-JAG and Ex-4 together vs either alone” value (RIN 1046-38 β-cells; RIN cells) was “greater that either alone”, the total intracellular insulin (RIN 1046-38 β-cells; RIN cells) was “increased” and the “insulin release into the medium” value (RIN 1046-38 β-cells; RIN cells) was “acutely increased”. For the same compound, the “[3H]thymidine uptake, increase above glucose treatment” value (RIN cells [2]) was “increased”, the PDX-1 levels (C57/BL6 mouse islets) was “increased” and the “NICD translocation to islet cell nuclei” value (Notch-1 (NICD) [3]) was “caused NICD translocation to nuclei of practically all islet cells; also recorded: increased NICD in all islet cells”. For the same compound, the “increase in transcriptional activation of the UAS promoter (cleavage of Notch ΔE-GVP)” value (γ-secretase; RIN cells transfected with Notch ΔE-GVP and MH100) was “at least 20 fold”.
For “R-JAG: Jagged-related peptide, Notch receptor binding fragment, CDDYYYGFGCNKFGRPRDD (SEQ ID NO:1)”, the “trypan blue exclusion (cell death)” value (RIN 1046-38 β-cells; RIN cells treated with R-JAG) was “continued to exclude trypan blue”, the “insulin secretion, replenishment every two hours vs single treatment” value (RIN 1046-38 β-cells; RIN cells, 6 h) was “greater effect” and the “insulin release, R-JAG and Ex-4 together vs either alone” value (RIN 1046-38 β-cells; RIN cells) was “greater that either alone”. For the same compound, the total intracellular insulin (RIN 1046-38 β-cells; RIN cells) was “significant increase”, the “insulin release into the medium” value (RIN 1046-38 β-cells; RIN cells) was “elevated insulin release into the medium after 2.5 h had elapsed” and the “[3H]thymidine uptake, increase above glucose treatment” value (RIN cells [2]) was 30%. For the same compound, the PDX-1 levels (RIN cells [4]) was “increased”, the “IRS2 and insulin mRNA with replenishing every 2 h” value (RIN cells [4]; RT-PCR) was “sustained elevations” and the “IRS-2 mRNA” value (RIN cells [4]; RT-PCR) was “increased”. For the same compound, the “insulin mRNA levels” value (RIN cells [4]; RT-PCR) was “increased”, the “time course of IRS2 and insulin mRNA after single treatment” value (RIN cells [4]; RT-PCR 27 cycles, normalized to GAPDH) was “diminished after 8 h” and the IRS-2 protein levels (RIN cells [4]; immunoblot) was “increased”. For the same compound, the “total Notch1 levels” value (RIN cells [4]; immunoblot) was “increased”, the PDX-1 levels (C57/BL6 mouse islets) was “increased” and the “increase in IRS-2 protein levels” value (C57/BL6 mouse islets; mouse islets of Langerhans) was 1.5 fold. For the same compound, the intra-cellular insulin (Rat islets; R-JAG 10 μM, glucose 6 mM) was “increase”, the IRS-2 transcription (Rat islets; over 2 and 6 hours) was “increases” and the PDX-1 transcription (Rat islets; over 2 and 6 hours) was “increases”. The insulin transcription (Rat islets; over 2 and 6 hours) was “increases”.
insulin was tested, and the “nuclear NICD / NICD translocation” value (Notch-1 (NICD) [1]; RIN cells treated with secretagogues) was “equivalent to control samples”.
For “scrambled Jagged peptide: scrambled control peptide without agonist activity, RCGPDCFDNYGRYKYCF (SEQ ID NO:3)”, the “[3H]thymidine uptake, increase above glucose treatment” value (RIN cells [2]) was “no effect”.
